Results taken from patent US20090304692A1, “TRIAZINE COMPOUNDS AS PI3 KINASE AND MTOR INHIBITORS” (Wyeth, priority 2008, published 2009).
“And” between values parts separate entries of the source, which are not always exact repeats. Equal entries are not always repeated. Where two headings read alike, the source gives them in different places.

How the values were obtained:
[1] = biological target: PI3K-α (Homo sapiens, UniProt P42336); assay: PI3K-alpha fluorescence polarization assay; settings: read-out: IC50 PI3Kα
Sequence of PI3K-α (P42336 whole entry, species assumed): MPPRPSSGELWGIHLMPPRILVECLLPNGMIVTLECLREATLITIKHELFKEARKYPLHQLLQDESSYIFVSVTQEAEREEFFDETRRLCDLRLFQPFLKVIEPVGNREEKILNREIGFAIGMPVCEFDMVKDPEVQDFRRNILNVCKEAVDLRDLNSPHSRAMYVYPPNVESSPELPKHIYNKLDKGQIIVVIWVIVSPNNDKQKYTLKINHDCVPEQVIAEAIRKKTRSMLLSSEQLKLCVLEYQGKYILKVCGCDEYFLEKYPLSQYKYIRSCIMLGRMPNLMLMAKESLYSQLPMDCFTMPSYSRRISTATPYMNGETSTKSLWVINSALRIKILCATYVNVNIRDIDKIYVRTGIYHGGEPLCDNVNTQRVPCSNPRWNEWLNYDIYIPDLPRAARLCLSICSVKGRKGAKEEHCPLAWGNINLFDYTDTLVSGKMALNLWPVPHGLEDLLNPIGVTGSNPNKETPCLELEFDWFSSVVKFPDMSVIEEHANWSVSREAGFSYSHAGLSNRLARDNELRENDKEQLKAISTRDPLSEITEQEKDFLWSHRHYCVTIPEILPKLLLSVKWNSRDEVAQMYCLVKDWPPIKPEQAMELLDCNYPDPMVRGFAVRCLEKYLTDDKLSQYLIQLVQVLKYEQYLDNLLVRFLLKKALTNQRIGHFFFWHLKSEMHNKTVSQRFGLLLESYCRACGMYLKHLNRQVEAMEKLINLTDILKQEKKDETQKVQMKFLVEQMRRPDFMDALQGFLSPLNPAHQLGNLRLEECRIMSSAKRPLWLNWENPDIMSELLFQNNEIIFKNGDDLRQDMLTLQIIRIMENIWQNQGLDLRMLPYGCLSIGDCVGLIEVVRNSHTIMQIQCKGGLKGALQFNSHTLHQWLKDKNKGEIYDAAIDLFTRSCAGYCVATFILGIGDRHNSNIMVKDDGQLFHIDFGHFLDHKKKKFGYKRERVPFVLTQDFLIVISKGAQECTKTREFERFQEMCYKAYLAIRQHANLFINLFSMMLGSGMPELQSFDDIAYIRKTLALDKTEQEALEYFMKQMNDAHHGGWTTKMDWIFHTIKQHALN
Sequence of PI3K-α (P27986 whole entry partner, species assumed): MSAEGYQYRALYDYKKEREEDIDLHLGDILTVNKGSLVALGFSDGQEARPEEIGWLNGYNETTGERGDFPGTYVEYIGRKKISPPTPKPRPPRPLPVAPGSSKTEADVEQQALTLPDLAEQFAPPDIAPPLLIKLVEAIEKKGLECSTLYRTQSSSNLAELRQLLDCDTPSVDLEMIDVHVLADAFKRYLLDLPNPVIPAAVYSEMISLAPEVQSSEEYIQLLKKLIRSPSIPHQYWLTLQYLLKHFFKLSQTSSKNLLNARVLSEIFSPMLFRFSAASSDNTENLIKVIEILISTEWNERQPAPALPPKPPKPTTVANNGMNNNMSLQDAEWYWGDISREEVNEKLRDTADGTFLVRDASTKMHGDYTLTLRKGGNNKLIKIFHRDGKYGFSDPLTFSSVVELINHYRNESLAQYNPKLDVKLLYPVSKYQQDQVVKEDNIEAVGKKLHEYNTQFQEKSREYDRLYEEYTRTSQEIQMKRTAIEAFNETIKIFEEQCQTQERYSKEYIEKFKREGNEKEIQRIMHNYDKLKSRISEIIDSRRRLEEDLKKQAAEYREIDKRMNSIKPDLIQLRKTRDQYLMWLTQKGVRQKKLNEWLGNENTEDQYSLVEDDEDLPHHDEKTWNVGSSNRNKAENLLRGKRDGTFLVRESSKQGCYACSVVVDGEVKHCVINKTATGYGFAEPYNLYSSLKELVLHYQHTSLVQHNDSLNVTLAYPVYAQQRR

[2] = biological target: Human mTOR (FLAG-TOR) (Homo sapiens, UniProt P42345); assay: mTOR kinase assay (DELFIA format, purified enzyme); type: biochemical; settings: read-out: IC50 mTOR
Sequence of Human mTOR (FLAG-TOR) (P42345 1360-2549 limits assumed): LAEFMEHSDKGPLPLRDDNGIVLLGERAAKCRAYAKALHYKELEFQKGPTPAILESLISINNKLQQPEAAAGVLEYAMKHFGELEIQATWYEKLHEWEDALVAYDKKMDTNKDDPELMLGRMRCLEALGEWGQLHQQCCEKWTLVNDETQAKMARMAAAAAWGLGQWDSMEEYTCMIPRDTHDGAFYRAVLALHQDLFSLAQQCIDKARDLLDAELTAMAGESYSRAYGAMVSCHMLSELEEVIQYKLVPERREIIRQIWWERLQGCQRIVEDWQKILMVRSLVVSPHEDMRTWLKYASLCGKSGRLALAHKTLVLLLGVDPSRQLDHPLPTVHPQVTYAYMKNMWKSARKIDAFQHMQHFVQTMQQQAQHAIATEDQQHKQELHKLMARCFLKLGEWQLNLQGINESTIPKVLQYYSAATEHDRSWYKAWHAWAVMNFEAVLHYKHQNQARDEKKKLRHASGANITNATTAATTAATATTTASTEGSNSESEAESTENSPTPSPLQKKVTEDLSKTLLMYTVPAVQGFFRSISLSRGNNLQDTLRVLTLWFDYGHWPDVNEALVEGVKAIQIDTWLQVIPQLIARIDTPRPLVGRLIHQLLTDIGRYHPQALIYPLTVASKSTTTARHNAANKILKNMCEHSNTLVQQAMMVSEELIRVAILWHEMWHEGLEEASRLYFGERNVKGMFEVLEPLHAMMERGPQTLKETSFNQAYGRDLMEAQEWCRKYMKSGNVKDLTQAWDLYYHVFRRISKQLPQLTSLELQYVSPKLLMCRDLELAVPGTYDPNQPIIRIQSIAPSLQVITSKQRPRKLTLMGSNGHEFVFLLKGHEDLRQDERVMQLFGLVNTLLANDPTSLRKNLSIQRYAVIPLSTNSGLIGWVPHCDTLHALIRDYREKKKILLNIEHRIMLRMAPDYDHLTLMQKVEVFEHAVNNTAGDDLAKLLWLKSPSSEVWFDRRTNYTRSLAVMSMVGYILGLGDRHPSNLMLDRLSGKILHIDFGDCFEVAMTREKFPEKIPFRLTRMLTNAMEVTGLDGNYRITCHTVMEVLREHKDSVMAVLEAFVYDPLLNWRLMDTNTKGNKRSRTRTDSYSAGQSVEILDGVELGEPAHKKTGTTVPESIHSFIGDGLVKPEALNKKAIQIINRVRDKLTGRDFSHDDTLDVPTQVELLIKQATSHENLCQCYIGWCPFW

[3] = biological target: PI3K-γ (Homo sapiens, UniProt P48736); assay: PI3K-gamma fluorescence polarization assay
Sequence of PI3K-γ (P48736 whole entry, species assumed): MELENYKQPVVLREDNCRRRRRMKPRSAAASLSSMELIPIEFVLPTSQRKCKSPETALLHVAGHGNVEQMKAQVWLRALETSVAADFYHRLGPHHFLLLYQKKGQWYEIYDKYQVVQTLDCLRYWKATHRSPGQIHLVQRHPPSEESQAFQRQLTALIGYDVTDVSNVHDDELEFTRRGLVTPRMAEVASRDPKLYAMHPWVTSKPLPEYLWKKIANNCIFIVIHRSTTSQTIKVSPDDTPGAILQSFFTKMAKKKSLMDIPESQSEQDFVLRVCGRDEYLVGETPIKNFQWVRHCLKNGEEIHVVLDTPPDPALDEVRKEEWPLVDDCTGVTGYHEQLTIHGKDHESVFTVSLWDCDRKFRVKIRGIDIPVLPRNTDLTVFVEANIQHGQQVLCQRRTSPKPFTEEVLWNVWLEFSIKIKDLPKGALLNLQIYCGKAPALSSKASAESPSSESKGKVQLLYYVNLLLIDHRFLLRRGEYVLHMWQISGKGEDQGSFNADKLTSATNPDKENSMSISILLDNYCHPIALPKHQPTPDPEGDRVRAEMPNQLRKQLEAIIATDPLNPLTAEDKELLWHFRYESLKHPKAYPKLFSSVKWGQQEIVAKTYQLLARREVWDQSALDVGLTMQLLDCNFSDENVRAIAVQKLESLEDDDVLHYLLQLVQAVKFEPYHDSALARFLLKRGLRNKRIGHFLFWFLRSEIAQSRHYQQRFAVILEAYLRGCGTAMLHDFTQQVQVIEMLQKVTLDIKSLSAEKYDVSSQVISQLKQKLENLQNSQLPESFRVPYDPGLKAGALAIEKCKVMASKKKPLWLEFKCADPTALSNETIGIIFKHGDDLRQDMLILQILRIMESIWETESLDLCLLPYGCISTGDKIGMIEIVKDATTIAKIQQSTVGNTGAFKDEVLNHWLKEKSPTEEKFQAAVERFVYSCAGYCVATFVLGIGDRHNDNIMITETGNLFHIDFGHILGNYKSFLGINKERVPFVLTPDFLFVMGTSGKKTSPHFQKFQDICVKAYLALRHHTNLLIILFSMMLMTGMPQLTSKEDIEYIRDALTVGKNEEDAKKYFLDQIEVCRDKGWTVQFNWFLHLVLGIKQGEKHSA

[4] = tested on: human prostate LNCap tumor cell line; assay: In vitro cell culture growth assay (MTS), LNCap; settings: read-out: IC50 LNCap

Row | Compound | IC50 [1] [nM] | IC50 [2] | IC50 ([3]; read-out: IC50 PI3Kγ) [nM] | IC50 ([4]; Homo sapiens, LNCaP, 72 h) [nM] | IC50 [3] [nM] | IC50 ([3]; read-out: IC50 PI3Kγ, listed as 717) [nM] | IC50 ([4]; MTS cell growth assay, three days after drug treatment) [nM]
1 | COC(=O)CNC1CCN(c2nc(-c3ccc(NC(=O)Nc4ccncc4)cc3)nc(N3CC4CCC(C3)O4)n2)CC1 [Example 125, Methyl 2-(1-(4-(8-oxa-3-azabicyclo[3.2.1]octan-3-yl)-6-(4-(3-pyridin-4-ylureido)phenyl)-1,3,5-triazin-2-yl)piperidin-4-ylamino)acetate] | 840 | 16 nM | 8750 | 1000 |  |  | 
2 | O=C(Nc1ccncc1)Nc1ccc(-c2nc(N3C4CCC3COC4)nc(N3C4CCC3COC4)n2)cc1 [Example 224, 1-[4-(4,6-di-3-oxa-8-azabicyclo[3.2.1]oct-8-yl-1,3,5-triazin-2-yl)phenyl]-3-pyridin-4-ylurea] | 444 | 0.4 nM and 0.395 nM | 5870 | < 0.8 |  | 5870 | 
3 | O=C(Nc1ccc(-c2nc(N3CC4CCC(C3)O4)nc(N3CC4CCC(C3)O4)n2)cc1)NC1CC1 [Example 30, 1-cyclopropyl-3-[4-(4,6-di-8-oxa-3-azabicyclo[3.2.1]oct-3-yl-1,3,5-triazin-2-yl)phenyl]urea] | 2120 | 2.65 nM |  | 90 | > 10000 |  | 
4 | CN(C)CCN(C)C(=O)c1ccc(NC(=O)Nc2ccc(-c3nc(C4CCOCC4)nc(N4C5CCC4COC5)n3)cc2)cc1 [Example 459, 4-(3-(4-(4-(3-oxa-8-azabicyclo[3.2.1]octan-8-yl)-6-(tetrahydro-2H-pyran-4-yl)-1,3,5-triazin-2-yl)phenyl)ureido)-N-(2-(dimethylamino)ethyl)-N-methylbenzamide] | 26 | 0.3 nM | 483 | < 0.8 |  |  | 
5 | CN(C)Cc1ccc(NC(=O)Nc2ccc(-c3nc(C4CCOCC4)nc(N4C5CCC4COC5)n3)cc2)cc1 [Example 409, 1-(4-(4-(3-oxa-8-azabicyclo[3.2.1]octan-8-yl)-6-(tetrahydro-2H-pyran-4-yl)-1,3,5-triazin-2-yl)phenyl)-3-(4-((dimethylamino)methyl)phenyl)urea] | 856 | 1.5 nM | 4490 | 50 |  |  | 
6 | 1-{4-[4-(4-morpholin-4-ylpiperidin-1-yl)-6-(8-oxa-3-azabicyclo[3.2.1]oct-3-yl)-1,3,5-triazin-2-yl]phenyl}-3-pyridin-4-ylurea [Example 121] | 1850 | 43.5 nM | 4000 |  |  |  | 1000
7 | CC(C)Nc1nc(-c2ccc(NC(=O)Nc3ccc(OCCN4CCCC4)cc3)cc2)nc(N2C3CCC2COC3)n1 [Example 384, 1-(4-(4-(3-oxa-8-azabicyclo[3.2.1]octan-8-yl)-6-(isopropylamino)-1,3,5-triazin-2-yl)phenyl)-3-(4-(2-(pyrrolidin-1-yl)ethoxy)phenyl)urea] | 4220 | 6.4 nM | 5380 | 50 |  |  | 
8 | CC(C)Nc1nc(-c2ccc(NC(=O)Nc3ccc(CN4CCNCC4)cc3)cc2)nc(N2C3CCC2COC3)n1 [Example 380, 1-(4-(4-(3-oxa-8-azabicyclo[3.2.1]octan-8-yl)-6-(isopropylamino)-1,3,5-triazin-2-yl)phenyl)-3-(4-(piperazin-1-ylmethyl)phenyl)urea] | 3340 | 5.1 nM | 3560 | 300 |  |  | 

Second part, led by results:

Row | IC50 [1] [nM] | IC50 [2] | IC50 ([3]; read-out: IC50 PI3Kγ) [nM] | IC50 ([4]; Homo sapiens, LNCaP, 72 h) [nM] | IC50 [3] [nM] | Compound | IC50 ([3]; read-out: IC50 PI3Kγ, listed as 717) [nM] | IC50 ([4]; MTS cell growth assay, three days after drug treatment) [nM]
9 | 1120 | 43 nM | 453 | 620 |  | CN(C)c1nc(-c2ccc(NC(=O)Nc3cccnc3)cc2)nc(N2CC3CCC(C2)O3)n1 [Example 192, 1-{4-[4-(dimethylamino)-6-(8-oxa-3-azabicyclo[3.2.1]oct-3-yl)-1,3,5-triazin-2-yl]phenyl}-3-pyridin-3-ylurea] |  | 
10 | 526 | 14 nM | 11000 | 8500 |  | O=C(Nc1ccc(-c2nc(OCC3CCNCC3)nc(N3CC4CCC(C3)O4)n2)cc1)Nc1cccnc1 [Example 183, 1-{4-[4-(8-oxa-3-azabicyclo[3.2.1]oct-3-yl)-6-(piperidin-4-ylmethoxy)-1,3,5-triazin-2-yl]phenyl}-3-pyridin-3-ylurea] |  | 
11 | 314 | 0.75 nM | 2380 | 8 |  | C[C@@H]1COCCN1c1nc(-c2ccc(NC(=O)Nc3ccc(OCCN4CCCC4)cc3)cc2)nc(N2CCOC[C@H]2C)n1 [Example 403, 1-(4-(4,6-bis((R)-3-methylmorpholino)-1,3,5-triazin-2-yl)phenyl)-3-(4-(2-(pyrrolidin-1-yl)ethoxy)phenyl)urea] |  | 
12 | 214 | 2.7 nM | 4280 | 120 |  | CC(C)Nc1nc(-c2ccc(NC(=O)Nc3ccc(CO)cc3)cc2)nc(N2CC3CCC(C2)O3)n1 [Example 221, 1-[4-(hydroxymethyl)phenyl]-3-(4-{4-[(1-methylethyl)amino]-6-(8-oxa-3-azabicyclo[3.2.1]oct-3-yl)-1,3,5-triazin-2-yl}phenyl)urea] |  | 
13 | 1450 | 170 nM | 7090 | 2700 |  | O=C(Nc1ccc(-c2nc(NN3CCN(C4CCCC4)CC3)nc(N3CC4CCC(C3)O4)n2)cc1)Nc1cccnc1 [Example 157, 1-(4-{4-[(4-cyclopentylpiperazin-1-yl)amino]-6-(8-oxa-3-azabicyclo[3.2.1]oct-3-yl)-1,3,5-triazin-2-yl}phenyl)-3-pyridin-3-ylurea] |  | 
14 | 1160 | 74.5 nM | 9500 | 900 |  | CN1CCN(C2CCN(c3nc(-c4ccc(NC(=O)Nc5ccncc5)cc4)nc(N4CC5CCC(C4)O5)n3)CC2)CC1 [Example 122, 1-(4-(4-(8-oxa-3-azabicyclo[3.2.1]octan-3-yl)-6-(4-(4-methylpiperazin-1-yl)piperidin-1-yl)-1,3,5-triazin-2-yl)phenyl)-3-(pyridin-4-yl)urea] |  | 
15 | 384 | 4 nM | 9500 | 4500 |  | O=C(Nc1ccc(-c2nc(NCCC3CCNCC3)nc(N3CC4CCC(C3)O4)n2)cc1)Nc1cccnc1 [Example 170, 1-(4-{4-(8-oxa-3-azabicyclo[3.2.1]oct-3-yl)-6-[(2-piperidin-4-ylethyl)amino]-1,3,5-triazin-2-yl}phenyl)-3-pyridin-3-ylurea] |  | 
16 | 574 | 9 nM | 1000 | 120 |  | COC(=O)Nc1ccc(-c2nc(-c3ccc(NC(=O)Nc4ccc(N5CCN(C)CC5)cc4)cc3)nc(N3CC4CCC(C3)O4)n2)cc1 [Example 145, methyl(4-{4-[4-({[4-(4-methylpiperazin-1-yl)phenyl]carbamoyl}amino)phenyl]-6-(8-oxa-3-azabicyclo[3.2.1]oct-3-yl)-1,3,5-triazin-2-yl}phenyl)carbamate] |  | 
17 | 408 | 2.4 nM | 5410 | 580 |  | C[C@@H](CO)Nc1nc(-c2ccc(NC(=O)Nc3cccnc3)cc2)nc(N2CC3CCC(C2)O3)n1 [Example 259, 1-{4-[4-{[(1S)-2-hydroxy-1-methylethyl]amino}-6-(8-oxa-3-azabicyclo[3.2.1]oct-3-yl)-1,3,5-triazin-2-yl]phenyl}-3-pyridin-3-ylurea] |  | 
18 | 401 | 0.8 nM | 3130 | 105 |  | CC(C)Nc1nc(-c2ccc(NC(=O)Nc3cccnc3)cc2)nc(N2CC3CCC(C2)O3)n1 [Example 193, 1-{4-[4-(isopropylamino)-6-(8-oxa-3-azabicyclo[3.2.1]oct-3-yl)-1,3,5-triazin-2-yl]phenyl}-3-pyridin-3-ylurea] |  | 
